We go through four compounds from ChEMBL document CHEMBL1142149, “In vitro activities of the lipopeptides palmitoyl (Pal)-Lys-Lys-NH(2) and Pal-Lys-Lys alone and in combination with antimicrobial agents against multiresistant gram-positive cocci” (2007).

Values after ≈ are worked out from the molar mass of the structure shown. Active and inactive are the calls of the source. No cut-off for these calls is given here.

The test system of one test is Prescottella equi. The test can be described thus: Antimicrobial activity against Rhodococcus equi ATCC 6939. In kind it is functional. To be noted: for MIC50 / MIC90: Rhodococcus (subgen. Prescottella) equi, ATCC 6939.
The test system of test [1] is Enterococcus faecalis. The test can be described thus: Antimicrobial activity against vancomycin-resistant Enterococcus faecalis ATCC 51299. To be noted: for MIC50 / MIC90: Enterococcus faecalis, ATCC 51299. The format is functional.
In test [2] the test system is Staphylococcus aureus. Description: Antimicrobial activity against methicillin-resistant Staphylococcus aureus ATCC 43300. The note with it: for MIC50 / MIC90: Staphylococcus aureus, ATCC 43300. In kind it is functional.
Test [3] deals with Enterococcus faecalis. The test can be described thus: Antimicrobial activity against vancomycin-susceptible Enterococcus faecalis ATCC 29212. The note with it: for MIC50 / MIC90: Enterococcus faecalis, ATCC 29212. The format is functional.
The test system of a further test is Streptococcus pyogenes. Description: Antimicrobial activity against Streptococcus pyogenes ATCC 19615. The format is functional. To be noted: for MIC50 / MIC90: Streptococcus pyogenes, ATCC 19615.
In test [4] the test system is Staphylococcus aureus. Description: Antimicrobial activity against methicillin-susceptible Staphylococcus aureus ATCC 29213. To be noted: for MIC50 / MIC90: Staphylococcus aureus, ATCC 29213. In kind it is functional.
The next test deals with Erythrocyte. Description: Effect on hemolytic activity in human RBC above 20 mg/liter. The format is functional, cell-based.

Regarding `CC[C@H]1OC(=O)[C@H](C)[C@@H](O[C@H]2C[C@@](C)(OC)[C@@H](O)[C@H](C)O2)[C@H](C)[C@@H](O[C@@H]2O[C@H](C)C[C@H](N(C)C)[C@H]2O)[C@](C)(O)C[C@@H](C)C(=O)[C@H](C)[C@@H](O)[C@]1(C)O` [ERYTHROMYCIN], the MBC50 against Prescottella equi turned out to be 32 µg/mL (≈ 43.6 µM); in the test on Staphylococcus aureus [2], 32 µg/mL (≈ 43.6 µM); against Enterococcus faecalis [3] it was 32 µg/mL (≈ 43.6 µM); in the test on Streptococcus pyogenes, 8 µg/mL (≈ 10.9 µM); in the test with Staphylococcus aureus [4], 16 µg/mL (≈ 21.8 µM). The figures for the MBC90 against Prescottella equi, against Streptococcus pyogenes and in the test with Staphylococcus aureus [4] were 64 µg/mL (≈ 87.2 µM), 32 µg/mL (≈ 43.6 µM) and 64 µg/mL (≈ 87.2 µM), respectively. Also, the MIC50 with Prescottella equi turned out to be 0.5 µg/mL (≈ 0.681 µM); with Enterococcus faecalis [1], 16 µg/mL (≈ 21.8 µM); in the test with Staphylococcus aureus [2], 4 µg/mL (≈ 5.45 µM); with Enterococcus faecalis [3], 8 µg/mL (≈ 10.9 µM); in the test on Streptococcus pyogenes it was 4 µg/mL (≈ 5.45 µM); in the test with Staphylococcus aureus [4] it was 4 µg/mL (≈ 5.45 µM). The MIC90 in the test on Prescottella equi worked out at 2 µg/mL (≈ 2.73 µM); against Enterococcus faecalis [1], 64 µg/mL (≈ 87.2 µM); in the test with Staphylococcus aureus [2] it was 32 µg/mL (≈ 43.6 µM); with Enterococcus faecalis [3], 32 µg/mL (≈ 43.6 µM); in the test with Streptococcus pyogenes, 8 µg/mL (≈ 10.9 µM); against Staphylococcus aureus [4], 8 µg/mL (≈ 10.9 µM).

On to `C[C@H]1c2cccc(O)c2C(=O)C2=C(O)[C@]3(O)C(=O)C(C(N)=O)=C(O)[C@@H](N(C)C)[C@@H]3[C@@H](O)[C@@H]21.O` [DOXYCYCLINE], for which the MBC50 against Prescottella equi came out at 32 µg/mL; against Enterococcus faecalis [3] it was 16 µg/mL; against Streptococcus pyogenes it was 8 µg/mL; in the test on Staphylococcus aureus [4], 8 µg/mL. The MBC90 with Prescottella equi stood at 128 µg/mL; in the test with Enterococcus faecalis [3] it was 64 µg/mL; against Streptococcus pyogenes, 16 µg/mL; in the test with Staphylococcus aureus [4], 32 µg/mL. The MIC50 in the test with Prescottella equi worked out at 1 µg/mL; against Enterococcus faecalis [1], 16 µg/mL; in the test with Staphylococcus aureus [2], 4 µg/mL; against Enterococcus faecalis [3], 4 µg/mL; in the test on Streptococcus pyogenes, 2 µg/mL; with Staphylococcus aureus [4], 2 µg/mL. Further, the MIC90 stood at 2 µg/mL against Prescottella equi; 64 µg/mL in the test with Enterococcus faecalis [1]; 16 µg/mL in the test on Staphylococcus aureus [2]; 32 µg/mL against Enterococcus faecalis [3]; 8 µg/mL in the test on Streptococcus pyogenes; 8 µg/mL with Staphylococcus aureus [4].

Regarding `CC1(C)S[C@@H]2[C@H](NC(=O)[C@H](N)c3ccc(O)cc3)C(=O)N2[C@H]1C(=O)O` [AMOXICILLIN], the MBC50 in the test on Prescottella equi came out at 8 µg/mL (≈ 21.9 µM); against Enterococcus faecalis [1], 64 µg/mL (≈ 175 µM); against Staphylococcus aureus [2], 64 µg/mL (≈ 175 µM); against Enterococcus faecalis [3], 16 µg/mL (≈ 43.8 µM); with Streptococcus pyogenes it was 4 µg/mL (≈ 10.9 µM); against Staphylococcus aureus [4], 8 µg/mL (≈ 21.9 µM). For the same compound, the MBC90 in the test with Prescottella equi worked out at 32 µg/mL (≈ 87.6 µM); in the test with Enterococcus faecalis [1], 128 µg/mL (≈ 350 µM); with Staphylococcus aureus [2], 256 µg/mL (≈ 701 µM); against Enterococcus faecalis [3] it was 64 µg/mL (≈ 175 µM); against Streptococcus pyogenes it was 8 µg/mL (≈ 21.9 µM); with Staphylococcus aureus [4], 16 µg/mL (≈ 43.8 µM). Moreover, the MIC50 amounted to 1 µg/mL (≈ 2.74 µM) against Prescottella equi; 16 µg/mL (≈ 43.8 µM) in the test on Enterococcus faecalis [1]; 32 µg/mL (≈ 87.6 µM) in the test on Staphylococcus aureus [2]; 4 µg/mL (≈ 10.9 µM) with Enterococcus faecalis [3]; 0.25 µg/mL (≈ 0.684 µM) with Streptococcus pyogenes; 1 µg/mL (≈ 2.74 µM) against Staphylococcus aureus [4]. The MIC90 is 2 µg/mL (≈ 5.47 µM) in the test on Prescottella equi; 64 µg/mL (≈ 175 µM) in the test on Enterococcus faecalis [1]; 128 µg/mL (≈ 350 µM) in the test on Staphylococcus aureus [2]; 16 µg/mL (≈ 43.8 µM) in the test on Enterococcus faecalis [3]; 2 µg/mL (≈ 5.47 µM) against Streptococcus pyogenes; 4 µg/mL (≈ 10.9 µM) in the test on Staphylococcus aureus [4].

As to `CCCCCCCCCCCCCCCC(=O)N[C@@H](CCCCN)C(=O)N[C@@H](CCCCN)C(N)=O`, the MBC50 with Prescottella equi is 8 µg/mL (≈ 15.6 µM); with Enterococcus faecalis [3] it was 4 µg/mL (≈ 7.82 µM); against Streptococcus pyogenes it was 2 µg/mL (≈ 3.91 µM); with Staphylococcus aureus [4], 8 µg/mL (≈ 15.6 µM). Moreover, the MBC90 against Prescottella equi is 32 µg/mL (≈ 62.5 µM); against Enterococcus faecalis [1] it was 16 µg/mL (≈ 31.3 µM); in the test with Enterococcus faecalis [3] it was 8 µg/mL (≈ 15.6 µM); in the test with Streptococcus pyogenes it was 4 µg/mL (≈ 7.82 µM); in the test on Staphylococcus aureus [4] it was 16 µg/mL (≈ 31.3 µM). Besides, the MIC50 against Prescottella equi is 4 µg/mL (≈ 7.82 µM); against Enterococcus faecalis [1], 2 µg/mL (≈ 3.91 µM); with Staphylococcus aureus [2], 4 µg/mL (≈ 7.82 µM); in the test on Enterococcus faecalis [3] it was 2 µg/mL (≈ 3.91 µM); against Streptococcus pyogenes it was 1 µg/mL (≈ 1.95 µM); with Staphylococcus aureus [4], 4 µg/mL (≈ 7.82 µM). The MIC90 came to 16 µg/mL (≈ 31.3 µM) in the test with Prescottella equi; 4 µg/mL (≈ 7.82 µM) in the test with Enterococcus faecalis [1]; 8 µg/mL (≈ 15.6 µM) against Staphylococcus aureus [2]; 4 µg/mL (≈ 7.82 µM) in the test with Enterococcus faecalis [3]; 2 µg/mL (≈ 3.91 µM) in the test on Streptococcus pyogenes; 8 µg/mL (≈ 15.6 µM) with Staphylococcus aureus [4]. Besides, the outcome in the test on Erythrocyte was Active.

A word on the MIC50: it is an inhibitory concentration at the 50% level, which refers to growth in some studies and to a panel of isolates in others. By MIC90 is commonly meant an inhibitory concentration at the 90% level, which refers to growth in some studies and to a panel of isolates in others. A higher MIC90 goes with lower susceptibility.
